The target of data set [1] is Transient receptor potential cation channel subfamily V member 1 (Homo sapiens, UniProt Q8NER1). The experiment in a line: Inhibition of binding to human vanilloid receptor subtype VR1.
The nature of data set [2]: Volume of distribution in rat. The class given is ADME, organism-based. The conditions noted are these: in vivo, read-out: Vbeta.
The target of data set [3] is Transient receptor potential cation channel subfamily V member 1 (Rattus norvegicus, UniProt O35433). As to the kind of experiment: Inhibition of binding to rat transient receptor potential vanilloid 1 receptor.
For data set [4], the species on record is Rattus norvegicus. As to the kind of experiment: Concentration required to reduce thermal hyperalgesia in the complete Freund's adjuvant (CFA) model of chronic inflammatory pain. In kind it is functional.
The nature of data set [5]: Plasma protein binding in rat. The class given is ADME, cell-free. Particulars: read-out: Plasma protein binding (converted).
Data set [6] in a line: Plasma protein binding in human. Particulars: read-out: Plasma protein binding (converted). The class given is ADME, cell-free.
A short description of data set [7]: Maximum concentration in rat. The class given is ADME, organism-based. Particulars: in vivo.
Data set [8] can be described thus: Half life in rat. In kind it is ADME. The conditions noted are these: in vivo.

Four compounds from ChEMBL document CHEMBL1142650, “Novel transient receptor potential vanilloid 1 receptor antagonists for the treatment of pain: structure-activity relationships for ureas with quinoline, isoquinoline, quinazoline, phthalazine, quinoxaline, and cinnoline moieties” (J Med Chem, 2005) can be followed below.

Chain of Transient receptor potential cation channel subfamily V member 1 (Homo sapiens, UniProt Q8NER1) (Q8NER1 whole entry): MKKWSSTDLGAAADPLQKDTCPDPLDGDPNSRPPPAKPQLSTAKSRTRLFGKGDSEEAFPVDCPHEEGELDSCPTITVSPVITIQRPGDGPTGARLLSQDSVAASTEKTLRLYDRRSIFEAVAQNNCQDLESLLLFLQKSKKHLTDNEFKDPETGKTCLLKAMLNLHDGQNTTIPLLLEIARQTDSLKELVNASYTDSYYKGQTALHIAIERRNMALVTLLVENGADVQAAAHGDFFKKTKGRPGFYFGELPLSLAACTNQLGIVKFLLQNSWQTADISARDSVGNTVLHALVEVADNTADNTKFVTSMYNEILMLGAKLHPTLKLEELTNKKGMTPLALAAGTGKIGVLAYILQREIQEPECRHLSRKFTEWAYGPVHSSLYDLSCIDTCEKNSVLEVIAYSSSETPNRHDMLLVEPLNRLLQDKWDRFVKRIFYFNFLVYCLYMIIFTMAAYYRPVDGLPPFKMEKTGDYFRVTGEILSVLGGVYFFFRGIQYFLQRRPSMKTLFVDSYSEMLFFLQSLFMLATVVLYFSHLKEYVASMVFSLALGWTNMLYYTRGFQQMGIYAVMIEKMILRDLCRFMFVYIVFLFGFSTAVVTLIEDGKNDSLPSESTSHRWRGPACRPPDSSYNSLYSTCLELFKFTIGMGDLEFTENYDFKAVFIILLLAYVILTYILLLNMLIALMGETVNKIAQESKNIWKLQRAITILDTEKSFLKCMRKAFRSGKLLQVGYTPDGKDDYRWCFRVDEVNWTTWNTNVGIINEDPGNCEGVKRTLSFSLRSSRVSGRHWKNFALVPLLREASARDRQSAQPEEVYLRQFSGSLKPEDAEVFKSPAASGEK
Chain of Transient receptor potential cation channel subfamily V member 1 (Rattus norvegicus, UniProt O35433) (O35433 whole entry): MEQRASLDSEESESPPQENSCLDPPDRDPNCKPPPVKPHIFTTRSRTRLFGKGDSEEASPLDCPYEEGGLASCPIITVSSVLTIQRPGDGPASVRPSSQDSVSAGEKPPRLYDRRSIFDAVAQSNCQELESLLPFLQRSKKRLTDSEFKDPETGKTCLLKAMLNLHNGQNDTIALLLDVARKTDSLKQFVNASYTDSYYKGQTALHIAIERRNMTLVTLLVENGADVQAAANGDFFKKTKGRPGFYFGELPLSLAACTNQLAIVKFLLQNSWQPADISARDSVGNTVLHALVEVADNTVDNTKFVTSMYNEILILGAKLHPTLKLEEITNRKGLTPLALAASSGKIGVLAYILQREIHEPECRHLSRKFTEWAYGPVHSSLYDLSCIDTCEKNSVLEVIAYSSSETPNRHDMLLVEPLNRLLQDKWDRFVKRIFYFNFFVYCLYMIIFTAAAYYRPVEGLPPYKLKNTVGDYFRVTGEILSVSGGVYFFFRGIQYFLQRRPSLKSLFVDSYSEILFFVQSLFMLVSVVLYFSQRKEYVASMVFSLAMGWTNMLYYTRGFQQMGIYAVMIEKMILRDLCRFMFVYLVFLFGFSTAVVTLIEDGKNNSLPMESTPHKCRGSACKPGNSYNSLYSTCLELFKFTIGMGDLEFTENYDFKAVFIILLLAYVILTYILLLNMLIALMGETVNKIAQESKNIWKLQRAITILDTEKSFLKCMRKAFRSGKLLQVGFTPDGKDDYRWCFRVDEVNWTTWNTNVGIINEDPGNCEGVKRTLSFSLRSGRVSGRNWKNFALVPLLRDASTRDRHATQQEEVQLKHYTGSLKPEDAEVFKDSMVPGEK

Take `O=C(NCCc1cccc(C(F)(F)F)c1)Nc1cccc2cnccc12`: in data set [1], the IC50 amounted to 20 nM.
As to `O=C(NCc1cccc(C(F)(F)F)c1)Nc1cccc2cnccc12`, the IC50 in data set [1] turned out to be 51 nM.
`CSc1cccc(NC(=O)Nc2cccc3ccc(O)cc23)c1`: the IC50 in data set [1] was 22 nM.
As for `O=C(NCc1ccc(C(F)(F)F)cc1)Nc1cccc2cnccc12`, in data set [2], the Vd stood at 0.6 L/kg. Further, the results for the IC50 in data set [3] and in data set [1] were 24 nM and 4 nM, respectively. For the same compound, in data set [4], the ED50 stood at 30 µmol/kg. In addition, the fraction unbound was 0.029 in data set [5] and 0.02 in data set [6]. This compound registered a Cmax in data set [7] of 3000 ng/mL. The half-life in data set [8] was 36 min.

As usually defined, the IC50 is the concentration needed to halve the response being measured. A higher IC50 goes with weaker potency in that assay. For orientation: ED50 means the midpoint of the dose-response relation. What is called Cmax is the maximum level reached in the sampled fluid or tissue. For orientation: half-life means the time in which the quantity being followed falls by half.
